# From PubChem BioAssay AID1963868 (Molecular Pharmacology Branch, DTP, NCI, 2024)
# System: KRAS PDC tumor spheroids (HUVEC+MSC), viability
# Assay: Anticancer human tumor 254851-301-R-J1-PDC patient-derived colon carcinoma cell line growth inhibition [KRAS2]
# Conditions: for IC50: curve of first compound; for viability, T/C: stronger effect = lower value
# Procedure, shortened: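 Combination screen of spheroid viability in tumor-cell co-cultures with endothelial (HUVEC) and mesenchymal stem cell stroma. Each agent was tested in half-log dilutions, topping at clinical Cmax or at 10 microM without a known Cmax.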
# [1] = second compound 0.1 µM, first compound 0.0316 µM
# [2] = second compound 0.1 µM, first compound 0.1 µM
# [3] = second compound 0.316 µM, first compound 0.0316 µM
# [4] = second compound 0.316 µM, first compound 0.1 µM
# [5] = second compound 1 µM, first compound 0.0316 µM
# [6] = second compound 1 µM, first compound 0.1 µM
# [7] = second compound 3.16 µM, first compound 0.0316 µM
# [8] = second compound 3.16 µM, first compound 0.1 µM
# [9] = second compound 10 µM, first compound 0.0316 µM
# [10] = second compound 10 µM, first compound 0.1 µM
# [11] = second compound 0.1 µM, first compound 0.316 µM
# [12] = second compound 0.1 µM, first compound 1 µM
# [13] = second compound 0.1 µM, first compound 3.16 µM
# [14] = second compound 0.1 µM, first compound 10 µM
# [15] = second compound 0.316 µM, first compound 0.316 µM
# [16] = second compound 0.316 µM, first compound 1 µM
# [17] = second compound 0.316 µM, first compound 3.16 µM
# [18] = second compound 0.316 µM, first compound 10 µM
# [19] = second compound 1 µM, first compound 0.316 µM
# [20] = second compound 1 µM, first compound 1 µM
# [21] = second compound 1 µM, first compound 3.16 µM
# [22] = second compound 1 µM, first compound 10 µM
# [23] = second compound 3.16 µM, first compound 0.316 µM
# [24] = second compound 3.16 µM, first compound 1 µM
# [25] = second compound 3.16 µM, first compound 3.16 µM
# [26] = second compound 3.16 µM, first compound 10 µM
# 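Also: spheroids exposed to compounds for seven days before readout.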
# 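For viability, T/C in this document: 100% = DMSO vehicle control luminescence of the spheroids.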
structure (smiles),measurement,setting,value
CC(C)n1nc(-c2ccc3oc(N)nc3c2)c2c(N)ncnc21 + C=CC(=O)N1CCN(c2nc(=O)n(-c3c(C)ccnc3C(C)C)c3nc(-c4c(O)cccc4F)c(F)cc23)C(C)C1,IC50,second compound 0.1 µM,0.0191 µM
same,IC50,second compound 0.316 µM,0.0216 µM
same,IC50,second compound 1 µM,0.0133 µM
same,IC50,second compound 3.16 µM,0.0201 µM
same,IC50,second compound 10 µM,0.0181 µM
same,"viability, T/C","second compound 0.1 µM, first compound 0.000316 µM",107%
same,"viability, T/C","second compound 0.1 µM, first compound 0.001 µM",110%
same,"viability, T/C","second compound 0.1 µM, first compound 0.00316 µM",92.8%
same,"viability, T/C","second compound 0.1 µM, first compound 0.01 µM",72.8%
same,"viability, T/C",[1],32.3%
same,"viability, T/C",[2],19.8%
same,"viability, T/C","second compound 0.316 µM, first compound 0.000316 µM",105%
same,"viability, T/C","second compound 0.316 µM, first compound 0.001 µM",104%
same,"viability, T/C","second compound 0.316 µM, first compound 0.00316 µM",97.7%
same,"viability, T/C","second compound 0.316 µM, first compound 0.01 µM",71.2%
same,"viability, T/C",[3],39.8%
same,"viability, T/C",[4],23.1%
same,"viability, T/C","second compound 1 µM, first compound 0.000316 µM",116%
same,"viability, T/C","second compound 1 µM, first compound 0.001 µM",113%
same,"viability, T/C","second compound 1 µM, first compound 0.00316 µM",102%
same,"viability, T/C","second compound 1 µM, first compound 0.01 µM",54.7%
same,"viability, T/C",[5],34.3%
same,"viability, T/C",[6],21.9%
same,"viability, T/C","second compound 3.16 µM, first compound 0.000316 µM",103%
same,"viability, T/C","second compound 3.16 µM, first compound 0.001 µM",117%
same,"viability, T/C","second compound 3.16 µM, first compound 0.00316 µM",89.7%
same,"viability, T/C","second compound 3.16 µM, first compound 0.01 µM",73.5%
same,"viability, T/C",[7],34.7%
same,"viability, T/C",[8],22.8%
same,"viability, T/C","second compound 10 µM, first compound 0.000316 µM",98.9%
same,"viability, T/C","second compound 10 µM, first compound 0.001 µM",109%
same,"viability, T/C","second compound 10 µM, first compound 0.00316 µM",88.5%
same,"viability, T/C","second compound 10 µM, first compound 0.01 µM",66.4%
same,"viability, T/C",[9],35.1%
same,"viability, T/C",[10],24%
CC(C)NCC(C(=O)N1CCN(c2ncnc3c2C(C)CC3O)CC1)c1ccc(Cl)cc1 (stereo not given) + CNCc1ccccc1-c1csc(C(C)Nc2nc(C)nc3cc(OC)c(OC)cc23)c1,IC50,second compound 0.1 µM,> 10 µM
same,IC50,second compound 0.316 µM,> 10 µM
same,IC50,second compound 1 µM,> 10 µM
same,IC50,second compound 3.16 µM,> 10 µM
same,IC50,second compound 10 µM,< 0.0316 µM
same,"viability, T/C",[1],105%
same,"viability, T/C",[2],99.1%
same,"viability, T/C",[11],93.3%
same,"viability, T/C",[12],92%
same,"viability, T/C",[13],99.1%
same,"viability, T/C",[14],92.1%
same,"viability, T/C",[3],107%
same,"viability, T/C",[4],111%
same,"viability, T/C",[15],93.4%
same,"viability, T/C",[16],89.5%
same,"viability, T/C",[17],95.6%
same,"viability, T/C",[18],93.5%
same,"viability, T/C",[5],94.8%
same,"viability, T/C",[6],94%
same,"viability, T/C",[19],80.3%
same,"viability, T/C",[20],84.5%
same,"viability, T/C",[21],83.2%
same,"viability, T/C",[22],89.4%
same,"viability, T/C",[7],78.6%
same,"viability, T/C",[8],67.8%
same,"viability, T/C",[23],56%
same,"viability, T/C",[24],73.1%
same,"viability, T/C",[25],56.5%
same,"viability, T/C",[26],52.6%
same,"viability, T/C",[9],0.18%
same,"viability, T/C",[10],0.19%
same,"viability, T/C","second compound 10 µM, first compound 0.316 µM",0.17%
same,"viability, T/C","second compound 10 µM, first compound 1 µM",0.17%
same,"viability, T/C","second compound 10 µM, first compound 3.16 µM",0.16%
same,"viability, T/C","second compound 10 µM, first compound 10 µM",0.22%
CCNC(=O)CC1N=C(c2ccc(Cl)cc2)c2cc(OC)ccc2-n2c(C)nnc21 (stereo not given) + C=CC(=O)N1CCN(c2nc(OCC3CCCN3C)nc3c2CCN(c2cccc4cccc(C)c24)C3)CC1CC#N,IC50,second compound 0.0316 µM,> 10 µM
same,IC50,second compound 0.1 µM,> 10 µM
same,IC50,second compound 0.316 µM,> 10 µM
same,IC50,second compound 1 µM,3.64 µM
same,IC50,second compound 3.16 µM,< 0.0316 µM
same,"viability, T/C","second compound 0.0316 µM, first compound 0.0316 µM",98.7%
same,"viability, T/C","second compound 0.0316 µM, first compound 0.1 µM",90.4%
same,"viability, T/C","second compound 0.0316 µM, first compound 0.316 µM",88.5%
same,"viability, T/C","second compound 0.0316 µM, first compound 1 µM",92.2%
same,"viability, T/C","second compound 0.0316 µM, first compound 3.16 µM",80.6%
same,"viability, T/C","second compound 0.0316 µM, first compound 10 µM",66.9%
same,"viability, T/C",[1],102%
same,"viability, T/C",[2],87.8%
same,"viability, T/C",[11],94.6%
same,"viability, T/C",[12],78.9%
same,"viability, T/C",[13],73.5%
same,"viability, T/C",[14],68.9%
same,"viability, T/C",[3],105%
same,"viability, T/C",[4],92.9%
same,"viability, T/C",[15],94.7%
same,"viability, T/C",[16],72.6%
same,"viability, T/C",[17],68%
same,"viability, T/C",[18],73.4%
same,"viability, T/C",[5],66.2%
same,"viability, T/C",[6],66.5%
same,"viability, T/C",[19],61.2%
same,"viability, T/C",[20],52.9%
same,"viability, T/C",[21],48.9%
same,"viability, T/C",[22],47.6%
same,"viability, T/C",[7],46.9%
same,"viability, T/C",[8],53.7%
same,"viability, T/C",[23],46.1%
same,"viability, T/C",[24],43.5%
same,"viability, T/C",[25],29.9%
same,"viability, T/C",[26],23.3%
